Test results published in PMC9644403, “L-type Amino Acid Transporter 1 Utilizing Ferulic Acid Derivatives Show Increased Drug Delivery in the Mouse Pancreas Along with Decreased Lipid Peroxidation and Prostaglandin Production” (Molecular Pharmaceutics, 2022).

Tests used:
[1] = tested on: prostaglandin E2 (PGE2) production; assay: Inhibition of prostaglandin E2 production in tissues of LPS-induced mice; type: in vivo, mouse; details: LPS 250 μg/kg i.p., mean ± SD; for PGE2 in liver, preventative treatment / PGE2 in pancreas, preventative treatment: compound 25 μmol/kg i.p. 3 days and 120 min before sacrifice; for PGE2 in liver, curative treatment / PGE2 in pancreas, curative treatment: compound 25 μmol/kg i.p. last 2 days
Method: (§1) According to the results from previous in vitro([18]) efficacy and safety studies and in vivo pharmacokinetics, the efficacy of the FA and the more LAT1-specific derivative, D1 against oxidative stress and lipid peroxidation was evaluated by determining malondialdehyde (MDA) formation in mouse tissues. To induce oxidative stress, mice were administered 250 μg/kg of lipopolysaccharide (LPS) i.p. once per day for 3 consecutive days. On the 4th day, mice were anesthetized using a mixture of ketamine (140 mg/kg) and xylazine (8 mg/kg) and sacrificed by decapitation. Animals were divided into one of four treatment groups (n = 4 per group); (1) LPS only, (2) LPS with the FA or D1 (25 μmol/kg; i.p.) for 3 days and 120 min before the sacrifice on the 4th day (preventative efficacy), (3) LPS with the FA or D1 (25 μmol/kg; i.p.) only for the last 2 days (curative efficacy), or (4) control mice treated with 0.9% NaCl solution i.p. once per day for 3 days. After decapitation, the kidney, liver, and pancreas were rapidly collected, snap-frozen on dry ice, and stored at −80 °C until analyzed.
The ability of FA and D1 to inhibit prostaglandin E2 (PGE2) production in the mouse kidney, liver, and pancreas was evaluated after the exposure of mice to LPS. The tissue homogenate supernatants (n = 4), prepared as described above in MDA sample preparation (Chapter 2.7), were further diluted 1:5 with 80% MeOH (v/v) solution containing the deuterated internal standard, PGE2-d4 (Cayman Chemical Company, Ann Arbor, MI, USA). To improve the extraction of prostaglandins and precipitation of proteins, the diluted samples were incubated overnight in a freezer (−80 °C). Subsequently, samples were centrifuged at 16 000 × g for 20 min at 4 °C and the supernatants were collected for the LC–MS/MS analysis.
The LC–MS/MS analysis was carried out with a previously described method[30] using an Agilent 1290 Infinity LC System (Agilent Technologies, Waldbronn, Germany) and an Agilent 6495 triple quadrupole mass spectrometer with a heated electrospray ionization source (Agilent Technologies, Palo Alto, CA, USA). Data were collected using Agilent MassHunter Workstation software (version B.06.00) and processed with the Quantitative Analysis (B.07.00) software. The results were calculated as nmol of PGE2 per mg of tissue.

[2] = tested on: malondialdehyde (MDA) formation; assay: Inhibition of lipid peroxidation: MDA formation in tissues of LPS-induced mice; type: in vivo, mouse; details: LPS 250 μg/kg i.p. 3 days, mean ± SD; for MDA formation in pancreas, preventative treatment: compound 25 μmol/kg i.p. for 3 days and 120 min before sacrifice; for MDA formation in pancreas, curative treatment: compound 25 μmol/kg i.p. only for the last 2 days
Method: as §1
Pieces of snap-frozen tissues were homogenized 1:10 (w/v) in 50 mM TBS (pH 7.4) containing 0.01% butylated hydroxytoluene by sonicating samples in pulses for 5 s with a SoniPrep 150 Plus disintegrator (MSE Ltd., London, UK). The homogenates were then centrifuged at 10 000 × g for 20 min at 4 °C, and the supernatants were collected for the assays.
MDA was quantified by the derivatization reaction with thiobarbituric acid (TBA) (Sigma, St. Louis, MO, USA), with a previously described protocol.[30] The analysis was carried out with an Agilent 1290 Infinity II LC System (Agilent Technologies, Santa Clara, CA, USA) combined with an Agilent 1290 Infinity II Diode Array Detector. The results were calculated as μmol of formed MDA-TBA2 per mg of tissue.

[3] = tested on: LAT1; parameters: method as in PMID 31814871, PMID 35011270; details: previous uptake mechanism studies; cited from earlier work
[4] = tested on: human umbilical vein endothelial cells (HUVECs); assay: HUVEC viability, WST-1 assay; type: cell-based; details: WST-1, 24 h
Method: As a third in vitro toxicity study in the human blood circulation system, the effects of FA, D1, and D2 on the viability of human umbilical vein endothelial cells (HUVECs; RRID CVCL_2959; Lonza, Italy; Cat. no. CC-2517) were determined using the WST-1 assay (Takara, Takara Bio Europe, Europe, Saint-Germain-en-Laye, France), according to the previously published protocol.[32] Briefly, the cells were cultured according to the manufacturer’s guidelines with the following ingredients: EGM-2-medium + bullet kit (Lonza, Clonetics, Italy), accutase (Sigma-Aldrich, Germany), and HEPES-buffered saline solution (Lonza, Basel, Switzerland). For the assay, the cells were seeded at the density of 7 500 HUVECs per well on 96-well plates and cultured for 24 h to obtain 70% confluency. Subsequently, the cells were treated with studied compounds in multiplicate (n = 6–8) at the concentration of 0.1–100 μM in the growth medium for 24 h (37 °C, 5% CO2). Cells with untreated growth medium represented 100% viability, whereas cells treated with medium containing 0.5% (v/v) methanol served as a negative control for drug solvent. After treating cells for 24 h, medium was removed, the cells were washed with the culture medium (100 μl/well), and 100 μL of WST-1 reagent dissolved in culture medium was added into each well. The plates were incubated at 37 °C with 5% CO2 for 2 h, after which absorbance values were measured at the 450 nm wavelength using a microplate reader (iMARK, Bio-Rad). Additionally, the effects of treatments on HUVEC morphology were examined microscopically using a phase-contrast Opta-Tech inverted microscope equipped with OptaView 7 software (Opta-Tech, Warsaw, Poland) for image analysis.

SMILES	PGE2 in liver, preventative treatment [1] [nmol/mg]	PGE2 in pancreas, preventative treatment [1] [nmol/mg]	PGE2 in liver, curative treatment [1] [nmol/mg]	PGE2 in pancreas, curative treatment [1] [nmol/mg]	MDA formation in pancreas, preventative treatment [2] [µmol/mg]	MDA formation in pancreas, curative treatment [2] [µmol/mg]	affinity toward LAT1 compared to the secondary transport mechanism [3]	overall uptake speed compared to D1 [3] [times]	effect on HUVEC viability at 1–50 μM [4]
COc1cc(C=CC(=O)NCc2cccc(CC(N)C(=O)O)c2)ccc1O (stereo not drawn) [derivative 1]	15.95 ± 9.61	24.51 ± 15.99	48.55 ± 14.50	23.51 ± 8.81	0.46 ± 0.47	0.44 ± 0.39			
COc1cc(/C=C/C(=O)Nc2cccc(C[C@H](N)C(=O)O)c2)ccc1O [derivative 2]							over 20 times	1.5	
COc1cc(C=CC(=O)O)ccc1O [ferulic acid, 4-hydroxy-3-methoxycinnamic acid]	25.41 ± 6.35	57.56 ± 51.63	37.07 ± 10.02	54.68 ± 22.02	0.94 ± 0.41	1.04 ± 0.29			no statistically significant effect
